“Also recorded” adds a separate entry of the source.
Key:
[1] = test system: human ES cell-derived neuroglial sphere cells; assay: Count of O4+ cells with oligodendrocyte branching morphology per field after terminal differentiation; format: cell-based
Experimental: Differentiation of ES cells into oligodendrocytes—The following steps were taken for initiating ES cell differentiation:
1. Step T: Transition step—Collagenase detached huESC colonies pooled from six 6-well plates, into a 15 ml tube supplemented with ES1 medium, were let to sediment by gravity for about 30 minutes in the incubator (37° C.). Colonies were then washed once in ES1 medium and then transferred to 12×6 cm tissue culture plates in 5 ml transition medium (T-medium) consisting of 50% (v/v) ES1 medium, and 50% (v/v) of ITTSPP/B27 medium. Growth factors (GF), recombinant human EGF (20 ng/ml, R&D Systems, Minneapolis, Minn.) and recombinant human bFGF (4 ng/ml, Biotest, Dreieich, Germany) were added to the transition medium. Thereafter (1 d), some cells adhered but the bulk of huESC colonies and aggregates remained in suspension and were transferred to 12 bacterial (non-adherent) plates in the same transition medium and cultured for 1 day. Then, 10 μM retinoic acid (RA, Sigma-Aldrich, St. Lewis, Mo.) was added to the T-medium and cells were cultured for an additional day.
2. Step R: Retinoic acid treatment—The medium was switched to ITTSPP/B27 containing 20 ng/ml of EGF and 10 μM RA. Medium was changed every day for 7 days, and colonies were concentrated by gravity, without centrifugation.
3. Step S: Suspension culture—During this step, which allows for ripening of neurospheres (NS), the aggregates were cultured in ITTSPP/B27 medium supplemented with 20 ng/ml EGF, for 18 days, changing medium every two days. The ITTSPP/B27 medium was, or was not supplemented with 50 ng/ml Noggin-Fc chimera (R&D systems, Minneapolis, Minn.), in order to examine the effect of noggin.
4. Steps M1,2: Adherence to matrigel-coated plates—Spheres or aggregates from one original 6-well plate were distributed to another 6-well plate which had been coated for 1.5 hours at room temperature with matrigel (Matrigel low growth factor concentration; BD Biosciences, Clontech, Palo Alto, Calif., diluted 1:30 in DMEM/F12 Pen-Strep). After one day, the unbound aggregates were discarded and fresh ITTSPP/B27 medium, supplemented with 20 ng/ml EGF, was added. Medium was changed every 3-4 days.
5. Passage with trypsin—Following 1-2 weeks, aggregates were detached and partially dissociated by a short treatment with trypsin 0.05% (2-3 min, 37° C.; Biological industries, Beit Haemek, Israel, diluted in PBS, —Ca and —Mg). Trypsin was rapidly neutralized by addition of 4 volumes of BSA (2 mg/ml; Sigma for Tissue culture) in ITTSPP/B27, and centrifugation at (200 rpm, 10 min), followed by another wash with BSA. This treatment dissociates the aggregates to small clusters that are seeded again onto matrigel-coated plates (at dilution 1:3), in ITTSPP/B27, 20 ng/ml EGF, for another 1-2 weeks (step M2).
(§1) 6. Steps F1,2: Terminal differentiation on matrigel—In step F1 (3 days), the medium was changed to ITTSPP/B27 containing EGF 5 ng/ml and bFGF 5 ng/ml, together with mouse laminin 1 μg/ml, and Vit C (50 μg/ml; Sigma-Aldrich, St. Lewis, Mo.). Some of the wells were treated with noggin (50 ng/ml Noggin-Fc chimera; R&D systems, Minneapolis, Minn.), 2 days after seeding, and noggin was continued thereafter. In step F2, cells were cultured 6 or 10 days in the same medium without growth factor, but with or without noggin. The medium was changed every two to four days.
Immunostaining—Cells were fixed in 12 or 24-well tissue culture plastic plates with 4% paraformaldehyde (PFA), washed with PBS, and kept at 4° C. before staining. Non-specific staining was blocked with normal goat serum (5% w/v in PBS) for 30 min at RT. Thereafter primary mouse monoclonal (mMc) antibodies, diluted in 1% goat serum, were administered. Antibodies used were: anti PDGFR (mMc IgG1, Santa Cruz, 1:500), O4 (mMc IgM, R&D Systems, 1:1000), O1 (mMc IgM, received from Dr Sheila Harroch, Pasteur Institute, Paris), anti tubulin-βIII (mMc IgG1, Cowance, 1:1000), and antibody 1281 (human nuclei antigen HNA, Chemicon). […]

human ES cells = assay: RT-PCR gene expression at the different culture steps; format: cell-based
Experimental: RT-PCR—total RNA was isolated from cultures at different culture steps using Tri-Reagent (Molecular Research Center, Cincinnati, Ohio) and RT-PCR was carried out by standard technology as previously described (Slutsky et al., 2003). Expression was checked for the following genes, as described in table 2 below, including the expression of the control gene G3PDH. Also provided in the table are primer sequences used for each gene. For G3PDH, primers from Clontech (Palo Alto, Calif., catalog #9805-1) were used.

[2] = test system: human ES cell-derived oligodendrocytes; assay: Number of MBP+ oligodendrocytes by immunostaining; format: cell-based; settings: step F2, 10 days without GF, noggin vs without noggin; FIG. 2g
Experimental: as §1
Immunostaining—Cells were fixed in 12 or 24-well tissue culture plastic plates with 4% paraformaldehyde (PFA), washed with PBS, and kept at 4° C. before staining. Non-specific staining was blocked with normal goat serum (5% w/v in PBS) for 30 min at RT. Thereafter primary mouse monoclonal (mMc) antibodies, diluted in 1% goat serum, were administered. […] An Olympus IX-70 FLA microscope with a DVC-1310C digital camera (DVC, Austin, Tex.) was used and images were processed with Photoshop and analyzed with Image-ProPlus software (Media Cybernetics, Silver Spring, Md.), in order to measure Integrated Optic Density (IOD) of color-specific pixels and MBP fiber length. […]

shiverer brain slices = assay: Ex vivo transplantation of human ES-NSc on shiverer brain slices (organotypic cultures), MBP staining and electron microscopy; format: cell-based, mouse
Experimental: Immunostaining—Cells were fixed in 12 or 24-well tissue culture plastic plates with 4% paraformaldehyde (PFA), washed with PBS, and kept at 4° C. before staining. Non-specific staining was blocked with normal goat serum (5% w/v in PBS) for 30 min at RT. Thereafter primary mouse monoclonal (mMc) antibodies, diluted in 1% goat serum, were administered. Antibodies used were: anti PDGFR (mMc IgG1, Santa Cruz, 1:500), O4 (mMc IgM, R&D Systems, 1:1000), O1 (mMc IgM, received from Dr Sheila Harroch, Pasteur Institute, Paris), anti tubulin-βIII (mMc IgG1, Cowance, 1:1000), and antibody 1281 (human nuclei antigen HNA, Chemicon). Following overnight exposure to the appropriate antibody (4° C.), biotinylated goat anti-mouse IgG1 (Southern Biotech, 1:50) was added for 30 minutes, followed by Cy3-tagged streptavidine (ABC laboratories, 1:2000). […] Staining for MBP was with rat monoclonal anti MBP (ab7349, AbCam, 1/500), and Cy3-conjugated Affipure goat anti rat IgG (Jackson laboratories, 1:500). […] An Olympus IX-70 FLA microscope with a DVC-1310C digital camera (DVC, Austin, Tex.) was used and images were processed with Photoshop and analyzed with Image-ProPlus software (Media Cybernetics, Silver Spring, Md.), in order to measure Integrated Optic Density (IOD) of color-specific pixels and MBP fiber length. […]

Shiverer mice = assay: Transplantation of huES-NSc into brain of shiverer mice, MBP-stained fibers; format: in vivo, mouse; settings: FIG. 4e
Description: Animal model—Shiverer mice have an extensive deletion in the MBP gene (Roach et al., 1985) and in a homozygous shi−/− animal there is no MBP immunoreactivity in the CNS. The appearance of fibers showing immunostaining for MBP following transplantation of oligodendrocyte precursors therefore indicates, that the transplanted cells have the capacity to myelinate endogenous neurons (Lachapelle et al., 1983).
Transplantation of huES-NSc in Shiverer mice—For transplantation, ES cell-derived dissociated neuroglial sphere cells (huEs-NSc) were prepared as described in Example 3. The culture steps from step T to step D3 that were followed, are outlined in Table 1 condition 3. in Example 1. However, Step D3 was for 9 days, with and without 50 ng/ml noggin. Growth factors were then removed for one day, during which 1 μg/ml laminin, and 50 μg/m Vit C were added to the N2/B27 medium (step F2, as described in Example 1). The culture was thereafter subjected to the short trypsin treatment (see Example 1) and the cells were injected intraventricularly to homozygous shiverer mice. One day old shi/shi pups were anesthetized by brief hypothermia and received an injection of 10^5 cells in 2 μl, over a period of 3 minutes, into the brain third ventricule, using a Hamilton 10 μl syringe. The pups were then warmed and returned to their mothers. […]

[3] = Dissociated cells, Passage 2, listed as noggin
[4] = On Matrigel, noggin added at Step S
[5] = On Matrigel, noggin added at Steps F and S

Noggin
oligodendrocytes formed in the differentiation step ([1]; Dissociated cells, passage 2, noggin added at the early step S): 1.77±1.2 | Fold (with vs without noggin), number of oligodendrocytes per field ([1]; Dissociated cells, Passage 2): 9.1 | Number of oligodendrocytes per field ([1]; Dissociated cells, Passage 2): 5.20 ± 1.7 | O4+ cells with ramified oligodendrocyte shape as share of total cells ([1]; Dissociated cells, Passage 2): about 5% | total O4+ cells as share of total cells ([1]; Dissociated cells, Passage 2): about 15% | Fold (with vs without noggin), number of oligodendrocytes per field [1, 3]: 9 | Number of oligodendrocytes per field [1, 3]: 5.20±1.7 | Fold (with vs without noggin), number of oligodendrocytes per field ([1]; Dissociated cells, Passage 3): 7.1 | Number of oligodendrocytes per field ([1]; Dissociated cells, Passage 3): 10.14 ± 5.2 | Fold (with vs without noggin), number of oligodendrocytes per field ([1]; Dissociated cells, Passage 4): 6.0 | Number of oligodendrocytes per field ([1]; Dissociated cells, Passage 4): 12.05 ± 3.6 | Number of oligodendrocytes per field ([1]; On Matrigel, noggin 50 ng/ml added at Step F, 6 days without growth factors, fields of 0.4 mm^2): 5.76 ± 4.2 | Fold (with vs without noggin), number of oligodendrocytes per field ([1]; On Matrigel, noggin added at Step F): 8.7 | Fold (with vs without noggin), number of oligodendrocytes per field [1, 4]: 2.2 | Number of oligodendrocytes per field [1, 4]: 1.50 ± 1.4 | Fold (with vs without noggin), number of oligodendrocytes per field [1, 5]: 4.4 | Number of oligodendrocytes per field [1, 5]: 2.95 ± 1.7 | proportion of oligodendrocytes of the total cells in the culture ([1]; after sub-passages (passages 3 and 4), noggin during steps D and F): 43% | number of well-developed oligodendrocytes displaying ramified branches ([1]; on matrigel, 10 days without growth factors, FIGS. 1g-h): strong effect | expression of Oct4 and Rex1 (human ES cells; after step S with noggin): down-regulated | expression of myelin proteolipid protein (PLP) (human ES cells; after step S with noggin): increasing | expression of PDGF-Rα (human ES cells; after step S with noggin, FIG. 1a lane 3): decreased | expression of Nkx2.2 and Sox10 (human ES cells; after step S, noggin 50 ng/ml, FIG. 1a lane 3): seen only when noggin was added | number of MBP+ oligodendrocytes [2]: very significant stimulation; also recorded: strong stimulation | myelin by electron microscopy (shiverer brain slices; brain tissue transplanted with noggin-treated huES-NS cells, FIG. 5e,f): compacted myelin sheaths, with major dense lines, were formed | overall myelinating capacity (extent of MBP staining and mean length of MBP+ fibers) (shiverer brain slices; noggin-treated vs untreated huES-NS cells, two weeks after implantation, FIG. 5g): markedly enhanced | number of MBP fibers/field (Shiverer mice; cells cultured with vs without noggin): increased | increase in the number of MBP fibers (Shiverer mice; huES-NSc treated 9 days with 50 ng/ml noggin at step D3, injected into third ventricule, four weeks): 3.5-4 fold

bFGF: recombinant human basic fibroblast growth factor
effect of addition at step S (ripening of neurospheres) ([1]; bFGF 20 ng/ml at step S): not found to be helpful | oligodendrocytes formed in the final differentiation step F ([1]; bFGF alternating with EGF during step S (without noggin), step F with noggin): 0.66±0.5 | expansion of dissociated precursor cells ([1]; combination of bFGF and EGF at step D2): better than EGF alone | induction of Nkx2.2 (human ES cells; protocol based on bFGF treatment with neither RA nor noggin, FIG. 1b): failed to induce Nkx2.2

— patent US8809052B2, “Methods of generating mature oligodendrocytes” (Yeda Research and Development Co. Ltd., priority 2006, dated 2014)
